Test results as given in patent US20140221361A1, “C-19 MODIFIED TRITERPENOIDS WITH HIV MATURATION INHIBITORY ACTIVITY” (priority 2013, published 2014).

System: recombinant NL4-3 virus (Renilla luciferase in nef, Gag P373S)
Test: HIV cell culture assay (luciferase reporter, MT-2 cells)
Format: cell-based, HIV-1
Conditions: luciferase activity, serial dilutions of inhibitor
Protocol: MT-2 cells and 293T cells were obtained from the NIH AIDS Research and Reference Reagent Program. MT-2 cells were propagated in RPMI 1640 media supplemented with 10% heat inactivated fetal bovine serum, […]. The 293T cells were propagated in DMEM media supplemented with 10% heat inactivated fetal bovine serum (FBS), 100 units/ml penicillin G and 100 µg/ml streptomycin. The proviral DNA clone of NL4-3 was obtained from the NIH AIDS Research and Reference Reagent Program. A recombinant NL4-3 virus, in which a section of the nef gene from NL4-3 was replaced with the Renilla luciferase gene, was used as a reference virus. In addition, residue Gag P373 was converted to P373S. Briefly, the recombinant virus was prepared by transfection of the altered proviral clone of NL4-3. Transfections were performed in 293T cells using LipofectAMINE PLUS from Invitrogen (Carlsbad, Calif.), according to manufacturer's instruction. The virus was titered in MT-2 cells using luciferase enzyme activity as a marker. Luciferase was quantitated using the Dual Luciferase kit from Promega (Madison, Wis.), with modifications to the manufacturer's protocol. The diluted Passive Lysis solution was pre-mixed with the re-suspended Luciferase Assay Reagent and the re-suspended Stop & Glo Substrate (2:1:1 ratio). Fifty (50) μL of the mixture was added to each aspirated well on assay plates and luciferase activity was measured immediately on a Wallac TriLux (Perkin-Elmer). Antiviral activities of inhibitors toward the recombinant virus were quantified by measuring luciferase activity in cells infected for 4-5 days with NLRluc recombinants in the presence serial dilutions of the inhibitor.

[1] = Renilla, NL43, MT-2 cells infected for 4-5 days with NLRluc recombinants
[2] = MT-2 cells infected for 4-5 days with NLRluc recombinants

Row | Compound | EC50 [1] [nM] | EC50 [2] [nM]
1 | CC(=NO)[C@@H]1CC[C@]2(NCCN3CCS(=O)(=O)CC3)CC[C@]3(C)[C@H](CC[C@@H]4[C@@]5(C)CC=C(c6ccc(C(=O)O)cc6)C(C)(C)[C@@H]5CC[C@]43C)[C@@H]12 (single isomer, unassigned) [Example B14] | 3.75 | –
2 | CC(CN1CCOCC1)[C@@H]1CC[C@]2(NCCN3CCS(=O)(=O)CC3)CC[C@]3(C)[C@H](CC[C@@H]4[C@@]5(C)CC=C(c6ccc(C(=O)O)cc6)C(C)(C)[C@@H]5CC[C@]43C)[C@@H]12 (single isomer, unassigned) [Example B16] | 0.827 | –
3 | CC(CN1CCS(=O)(=O)CC1)[C@@H]1CC[C@]2(NCCN3CCS(=O)(=O)CC3)CC[C@]3(C)[C@H](CC[C@@H]4[C@@]5(C)CC=C(c6ccc(C(=O)O)cc6)C(C)(C)[C@@H]5CC[C@]43C)[C@@H]12 (single isomer, unassigned) [Example B18] | 1.57 | –
4 | CC(N)[C@@H]1CC[C@]2(NCCN3CCS(=O)(=O)CC3)CC[C@]3(C)[C@H](CC[C@@H]4[C@@]5(C)CC=C(c6ccc(C(=O)O)cc6)C(C)(C)[C@@H]5CC[C@]43C)[C@@H]12 (single isomer, unassigned) [Example B19] | 30 | –
5 | CC([C@@H]1CC[C@]2(NCCN3CCS(=O)(=O)CC3)CC[C@]3(C)[C@H](CC[C@@H]4[C@@]5(C)CC=C(c6ccc(C(=O)O)cc6)C(C)(C)[C@@H]5CC[C@]43C)[C@@H]12)N(C)C (single isomer, unassigned) [Example B39] | – | 4.33
6 | CC([C@@H]1CC[C@]2(NCCN3CCS(=O)(=O)CC3)CC[C@]3(C)[C@H](CC[C@@H]4[C@@]5(C)CC=C(c6ccc(C(=O)O)cc6)C(C)(C)[C@@H]5CC[C@]43C)[C@@H]12)N(C)C (single isomer, unassigned) [Example B40] | – | 40
7 | CC(N)[C@@H]1CC[C@]2(NCCN3CCS(=O)(=O)CC3)CC[C@]3(C)[C@H](CC[C@@H]4[C@@]5(C)CC=C(c6ccc(C(=O)O)cc6)C(C)(C)[C@@H]5CC[C@]43C)[C@@H]12 (single isomer, unassigned) [Example B41] | – | 40
8 | C=C(CNCCN1CCOCC1)[C@@H]1CC[C@]2(C(=O)O)CC[C@]3(C)[C@H](CC[C@@H]4[C@@]5(C)CC=C(c6ccc(C(=O)O)cc6)C(C)(C)[C@@H]5CC[C@]43C)[C@@H]12 [Example 1, (1R,3aS,5aR,5bR,7aR,11aS,11bR,13aR,13bS)-9-(4-carboxyphenyl)-5a,5b,8,8,11a-pentamethyl-1-(3-(2-morpholinoethylamino)prop-1-en-2-yl)-2,3,3a,4,5,5a,5b,6,7,7a,8,11,11a,11b,12,13,13a,13b-octadecahydro-1H-cyclopenta[a]chrysene-3a-carboxylic acid] | 40 | –
9 | C=C(CNCCO)[C@@H]1CC[C@]2(C(=O)O)CC[C@]3(C)[C@H](CC[C@@H]4[C@@]5(C)CC=C(c6ccc(C(=O)O)cc6)C(C)(C)[C@@H]5CC[C@]43C)[C@@H]12 [Example 2, (1R,3aS,5aR,5bR,7aR,11aS,11bR,13aR,13bS)-9-(4-carboxyphenyl)-1-(3-(2-hydroxyethylamino)prop-1-en-2-yl)-5a,5b,8,8,11a-pentamethyl-2,3,3a,4,5,5a,5b,6,7,7a,8,11,11a,11b,12,13,13a,13b-octadecahydro-1H-cyclopenta[a]chrysene-3a-carboxylic acid] | 140 | –
10 | C=C(CN(C)C)[C@@H]1CC[C@]2(C(=O)O)CC[C@]3(C)[C@H](CC[C@@H]4[C@@]5(C)CC=C(c6ccc(C(=O)O)cc6)C(C)(C)[C@@H]5CC[C@]43C)[C@@H]12 [Example 3, (1R,3aS,5aR,5bR,7aR,11aS,11bR,13aR,13bS)-9-(4-carboxyphenyl)-1-(3-(dimethylamino)prop-1-en-2-yl)-5a,5b,8,8,11a-pentamethyl-2,3,3a,4,5,5a,5b,6,7,7a,8,11,11a,11b,12,13,13a,13b-octadecahydro-1H-cyclopenta[a]chrysene-3a-carboxylic acid] | 100 | –
